# “Also recorded” adds a separate entry of the source. Where a name gives a salt, the structure may show the parent alone. Residues, ends and D or L forms follow the SMILES beside them. *: point of attachment. Cbz = O=C(OCc1ccccc1)*
# Key:
# Type in all cases: in vivo, Caenorhabditis elegans
# C. elegans strain PE254 [1] = assay: C. elegans LSC qHTS viability assay, Anti-Infectives library primary screen (BG-fed, 384-well); details: for activity on C. elegans viability in primary qHTS (in words): seven-point titration
# Description: Levamisole, ivermectin and albendazole were purchased from Sigma-Aldrich. Stock solutions of all compounds were prepared at 10 mM in DMSO, and ivermectin was diluted to a 10 µM working dilution in DMSO. […] Of these, 284 (38%) are approved for clinical use in the United States, 32 (4%) were previously marketed for use in the United States, and 62 (8%) are used clinically outside of the United States. […] DMSO stock solutions of were arrayed in Echo-qualified 384-well cyclic olefin copolymer plates (Labcyte) in qHTS inter-plate dilution with seven concentrations, 1:5 dilution, resulting in a final concentration range of 2.5–20 mM high concentration titrated to 160 nM to 1.28 µM low concentration ([Yasgar et al., 2008]). ‘Assay-ready’ plates were prepared in 384-well uClear microtiter plates (Greiner BioOne), with compounds acoustically dispensed at 250 nl per well with an Echo 555 in the above inter-plate titration array. Two plates with DMSO added across the compound field at the same volume were prepared as screening controls (‘uniformity plates’). DMSO vehicle control was added to every well of column 1, and levamisole cytotoxicity control was added at a high concentration of 10 mM in wells 1–8 and titrated 1:3, starting at a high concentration of 10 mM to 4.57 µM in wells 9–16 of column 2 of every plate. Additionally, ivermectin, levamisol and albendazole were plated as internal controls on one assay plate in 16-point, 1:2 titration down six replicate columns per compound, starting at a high concentration of 10 µM (ivermectin) or 10 mM (levamisole and albendazole). Assay-ready plates were sealed and frozen at −80°C until use.
# C. elegans strain PE254 were collected from 12 NGM plates as above, transferred to 250 ml S medium supplemented with OP50 E. coli pellet collected from 2 l overnight culture, and grown for 5 days at 21°C with vigorous shaking in an Incu-Shaker Mini Shaking Incubator (Benchmark Scientific, Inc.). Eggs were axenized as above and hatched overnight in M9 buffer at 21°C and shaken at 65 rpm. Assay ready plates were thawed and allowed to equilibrate to ambient temperature. BGs in S medium (30 µl/well) at an OD600=0.85 were manually added across plates with a Capp pipette. Synchronized L1 worms from above were collected, diluted and plated at ten worms/30 µl/well with a Capp pipette into assay-ready microtiter plates pre-plated with BGs and compounds (240-fold dilution). […] No ethical approval or guidance is needed for working with nematodes.
# Data from the Anti-Infectives screen were normalized by plate to corresponding intra-plate controls as previously described ([Inglese et al., 2006]). Assay statistics were calculated using the same respective controls. Total object ‘GFP’ area (µm^2) and number of worms were normalized to the average signal of DMSO-treated wells as zero percent neutral control, and the average signal of 41.7 µM levamisole-treated wells as −100% activity. In-house software was used to fit the resulting inter-plate titration data to the standard Hill equation, and concentration–response curves were classified by activity as previously described ([Southall et al., 2009]). Curve fits assignments of −1.1, −1.2, −2.1, −2.2 and −3 were considered active and visually confirmed.
# C. elegans strain PE254 [2] = assay: Follow-up 11-point re-test, C. elegans LSC viability; details: 11-point titration, day 7, GFP area and worm number
# Description: C. elegans strain PE254 were collected from six NGM plates and washed. […] Assay-ready plates were prepared as above with an 11-point, 1:3 titration of 96 compounds identified as active from the qHTS screen based on curve classification and maximum response. […] Data were normalized as above, and concentration–response curves were fit in Prism with nonlinear regression log(agonist) versus response–variable slope (four parameters) fit.
# C. elegans strain PE254 [3] = assay: Life-stage distribution analysis by COPAS flow cytometry after 7-day treatment; details: 7-day treatment at ∼EC75-80, mixed population of 2000 worms/well
# Description: After 7 days of compound treatment in six-well culture plates seeded with a mixed population of 2000 C. elegans strain PE254, a life-stage distribution analysis was determined by TOF and EC using the COPAS FP BioSorter, followed by bulk collection in a 50 ml conical tube for use in proteomics studies.
# C. elegans strain PE254 [4] = assay: 384-well LSC C. elegans viability assay, life-stage sorted worms on BGs or OP50 live bacteria (assay development); details: all life stages grown on BGs, by day 1; read-out: half-maximal effective concentration (EC50)
# Description: Strain PE254 worms were collected from eight NGM plates as above. The mixed population of C. elegans was resuspended in 30 ml 1× S basal buffer and plated at ten GFP worms per well of each life stage into respective wells of 384-well uClear microtiter plates with the COPAS biosorter run with the calibration protocol and settings from above. E. coli BGs diluted to OD600=0.6 or OP50 live bacteria diluted to OD600=0.05, 0.10, 0.15 or 0.2 in S medium were added to respective plates at 30 μl per well manually with a Capp pipette (BioVentures, Inc.). […] Plates were covered with a Breath-Easy seal (Thermo Fisher Scientific) and weighted metal lids with gas exchange pores (Fujifilm Wako Automation Corp.). Worms were grown in the presence of compound or DMSO for 7 days at 21°C and 65 rpm in an Incu-Shaker (Benchmark Scientific). Worms were imaged every 24–72 h on an Acumen eX3 laser scanning cytometer (STP Labtech). Plates were read with default reader settings, with scan 1 488 nm laser, green (FL-2) detection channel, 400 voltage, sensitivity of 2 and triggered in the green PMT. Green objects detected by the reader were identified as worms based on the filtered FL-2 object parameters perimeter (100-2200), area (1000-180,000), and peak intensity (150-1500). Viability was monitored as an increase in GFP fluorescence quantified as total number and total object area (µm^2) of FL-2 filtered objects per well. LSC data were collected using cellista 4 (version 4.3.4.0, STP Labtech).
# Concentration–response curves for average total filtered FL-2 object area (‘GFP area’) and total filtered FL-2 number of objects (‘number of worms’) for each respective compound were fit with the nonlinear regression log (agonist) versus response–variable slope (four parameters) algorithm in Prism (GraphPad Software). Hillslope and/or EC50 constraints were applied as needed to all life stages per compound across the 7-day time course, and EC50 values were calculated. […] (3) [drawing 3] where σ is the mean signal and µ is the standard deviation for the treated (p) or neutral (n) controls.
# [5] = Caenorhabditis elegans, Fig. 3D, read-out: qHTS potency based on GFP area
# [6] = Caenorhabditis elegans, Fig. 3D, read-out: qHTS potency based on worm number
compound,measurement,setting,value
"O=C(/C=C\n1cnc(-c2cc(C(F)(F)F)cc(C(F)(F)F)c2)n1)NNc1ccccn1 [Verdinexor, verdinexor]",activity on C. elegans viability in primary qHTS (in words),C. elegans strain PE254 [1]; GFP area,low potency and efficacy
same,activity on C. elegans viability in follow-up (in words),C. elegans strain PE254 [2],moderately active
O=C(C1CCCCC1)N1CC(=O)N2CCc3ccccc3C2C1 (centres unmarked) [Praziquantel],curve classification (CC),"C. elegans strain PE254 [1]; GFP area, day 7",4
same,activity on C. elegans viability in primary qHTS (in words),C. elegans strain PE254 [1]; GFP area,not detected; also recorded: not identified as active
same,effect on life stage viability (in words),C. elegans strain PE254 [3],no effect
CC(C)C[C@@H](C=O)NC(=O)[C@H](CC(C)C)NC(=O)[C@H](CC(C)C)NC(=O)OCc1ccccc1 [MG-132] (Cbz-Leu-Leu-Leu-aldehyde),activity on C. elegans viability in primary qHTS (in words),C. elegans strain PE254 [1]; GFP area,Inactive
same,effect on life stage viability (in words),C. elegans strain PE254 [3],no discernable effect
C[C@H](NC(=O)[C@@H](O)c1cc(F)cc(F)c1)C(=O)N[C@@H]1C(=O)N(C)c2ccccc2-c2ccccc21 [LY-411575],effect on life stage viability (in words),C. elegans strain PE254 [3],affecting life-stage progression or number
Ivermectin,EC50,C. elegans strain PE254 [4],~1 nM
same,activity on C. elegans viability in primary qHTS (in words),C. elegans strain PE254 [1]; GFP area,active
same,EC50,"C. elegans strain PE254 [1]; treatment day 2, internal control, 16-point titration, six replicate wells, read-out: Treatment day, EC50 (GFP area)",17 ± 3.9 nM
same,EC50,"C. elegans strain PE254 [1]; treatment day 3, internal control, 16-point titration, six replicate wells, read-out: Treatment day, EC50 (GFP area)",16.9 ± 2.3 nM
same,EC50,"C. elegans strain PE254 [1]; treatment day 4, internal control, 16-point titration, six replicate wells, read-out: Treatment day, EC50 (GFP area)",14 ± 1.7 nM
same,EC50,"C. elegans strain PE254 [1]; treatment day 5, internal control, 16-point titration, six replicate wells, read-out: Treatment day, EC50 (GFP area)",14.6 ± 1.1 nM
same,EC50,"C. elegans strain PE254 [1]; treatment day 6, internal control, 16-point titration, six replicate wells, read-out: Treatment day, EC50 (GFP area)",13.6 ± 1.1 nM
same,EC50,"C. elegans strain PE254 [1]; treatment day 7, internal control, 16-point titration, six replicate wells, read-out: Treatment day, EC50 (GFP area)",12.4 ± 1.2 nM
CCCC[C@@H](C=O)NC(=O)[C@H](CC(C)C)NC(=O)OCc1ccccc1 [Calpeptin],activity on C. elegans viability in primary qHTS (in words),C. elegans strain PE254 [1]; GFP area,Inactive
CC(C)C[C@H](NC(=O)[C@@H](NC(=O)c1cccc(-c2ccccc2)n1)[C@@H](C)O)B(O)O [Delanzomib],EC50,C. elegans strain PE254 [1]; [5],405 nM
same,EC50,C. elegans strain PE254 [1]; [6],311 nM
CC(C)C[C@H](NC(=O)CNC(=O)c1cc(Cl)ccc1Cl)B(O)O [Ixazomib],EC50,C. elegans strain PE254 [1]; [5],1130 nM
same,EC50,C. elegans strain PE254 [1]; [6],863 nM
CCNC(=O)C[C@@H]1N=C(c2ccc(Cl)cc2)c2cc(OC)ccc2-n2c(C)nnc21 [I-BET762],activity on C. elegans viability in primary qHTS (in words),C. elegans strain PE254 [1]; GFP area,Active
"CC(=O)OC[C@H]1O[C@@H]([S-])[C@H](OC(C)=O)[C@@H](OC(C)=O)[C@@H]1OC(C)=O.CCP(CC)CC.[Au+] [Auranofin, auranofin]",activity on C. elegans viability in follow-up (in words),C. elegans strain PE254 [2],best activity; also recorded: potent and/or efficacious toxicity
O=[N+]([O-])c1ccc(S(=O)(=O)N2CCN(c3ccnc4cc(Cl)ccc34)CC2)c([N+](=O)[O-])c1 [VR23],activity on C. elegans viability in primary qHTS (in words),C. elegans strain PE254 [1]; GFP area,Inactive
CC[C@H](C)[C@H](NC(=O)[C@H]([C@@H](C)CC)N(C)C(C)=O)C(=O)N[C@H](C(=O)N[C@@H](CC(C)C)C(=O)[C@@]1(C)CO1)[C@@H](C)O [Epoxomicin],activity on C. elegans viability in primary qHTS (in words),C. elegans strain PE254 [1]; GFP area,Inactive
O=C(NO)c1cccc(C(=O)NCCc2ccccc2)c1 [BRD73954],activity on C. elegans viability in primary qHTS (in words),C. elegans strain PE254 [1]; GFP area,inactive
COc1cc2c(cc1-c1c(C)noc1C)ncc1[nH]c(=O)n([C@H](C)c3ccccn3)c12 [I-BET151],activity on C. elegans viability in primary qHTS (in words),C. elegans strain PE254 [1]; GFP area,inactive
CC(C)C[C@H](NC(=O)CNC(=O)c1cc(Cl)ccc1Cl)B1OC(=O)C(CC(=O)O)(CC(=O)O)O1 [Ixazomib citrate],EC50,C. elegans strain PE254 [1]; [5],411 nM
same,EC50,C. elegans strain PE254 [1]; [6],382 nM
oligomycin A,activity on C. elegans viability in follow-up (in words),C. elegans strain PE254 [2],best activity; also recorded: potent and/or efficacious toxicity
Cc1cc(/C=C/c2ccc3cc(N(C)C)ccc3[n+]2C)c(C)n1-c1ccccc1 [Pyrvinium pamoate],activity on C. elegans viability in primary qHTS (in words),C. elegans strain PE254 [1]; GFP area,active
Cc1noc2c1-c1ccccc1C(c1ccc(Cl)cc1)=N[C@H]2CC(N)=O [CPI-0610],activity on C. elegans viability in primary qHTS (in words),C. elegans strain PE254 [1]; GFP area,Active
Cc1sc2c(c1C)C(c1ccc(Cl)cc1)=N[C@@H](CC(=O)OC(C)(C)C)c1nnc(C)n1-2 [JQ1],activity on C. elegans viability in primary qHTS (in words),C. elegans strain PE254 [1]; GFP area,Active
"COC(=O)[C@]1(C)CC[C@]2(C)CC[C@]3(C)C4=CC=C5C(=CC(=O)C(O)=C5C)[C@]4(C)CC[C@@]3(C)[C@@H]2C1 [Pristimerin, pristimerin]",activity on C. elegans viability in follow-up (in words),C. elegans strain PE254 [2],potent and/or efficacious toxicity
"CC(C)(C)c1cc(C=C(C#N)C#N)cc(C(C)(C)C)c1O [Tyrphostin A9, tyrphostin A9]",activity on C. elegans viability in follow-up (in words),C. elegans strain PE254 [2],best activity; also recorded: potent and/or efficacious toxicity
Cn1cnc2c(F)c(Nc3ccc(Br)cc3Cl)c(C(=O)NOCCO)cc21 [Selumetinib],effect on life stage viability (in words),C. elegans strain PE254 [3],no discernable effect
same,effect on life stage viability (in words),C. elegans strain PE254 [3]; listed as 10,inactive
Cc1sc2c(c1C)C(c1ccc(Cl)cc1)=N[C@@H](CC(=O)Nc1ccc(O)cc1)c1nnc(C)n1-2 [OTX-015],activity on C. elegans viability in primary qHTS (in words),C. elegans strain PE254 [1]; GFP area,inactive
COC[C@H](NC(=O)c1cnc(C)s1)C(=O)N[C@@H](COC)C(=O)N[C@@H](Cc1ccccc1)C(=O)[C@@]1(C)CO1 [Oprozomib],activity on C. elegans viability in primary qHTS (in words),C. elegans strain PE254 [1]; GFP area,Inactive
CC(=O)Nc1cccc(-n2c(=O)n(C3CC3)c(=O)c3c(Nc4ccc(I)cc4F)n(C)c(=O)c(C)c32)c1 [Trametinib],effect on life stage viability (in words),C. elegans strain PE254 [3],potent larval-stage depletion
same,effect on life stage viability (in words),C. elegans strain PE254 [3]; listed as 9,affecting life-stage progression or number
CC(C)C[C@H](NC(=O)[C@H](CCc1ccccc1)NC(=O)CN1CCOCC1)C(=O)N[C@@H](Cc1ccccc1)C(=O)N[C@@H](CC(C)C)C(=O)[C@@]1(C)CO1 [Carfilzomib],activity on C. elegans viability in primary qHTS (in words),C. elegans strain PE254 [1]; GFP area,Inactive
O=C(Oc1ccc([N+](=O)[O-])cc1)N1CCC(C(O)(c2ccc3c(c2)OCO3)c2ccc3c(c2)OCO3)CC1 [JZL-184],activity on C. elegans viability in primary qHTS (in words),C. elegans strain PE254 [1]; GFP area,low potency and efficacy
same,activity on C. elegans viability in follow-up (in words),C. elegans strain PE254 [2],moderately active
CC(=O)N1c2ccc(-c3ccc(C(=O)O)cc3)cc2[C@H](Nc2ccc(Cl)cc2)C[C@@H]1C [GSK1324726A],activity on C. elegans viability in primary qHTS (in words),C. elegans strain PE254 [1]; GFP area,Active
CC(C)C[C@H](NC(=O)[C@H](Cc1ccccc1)NC(=O)c1cnccn1)B(O)O [Bortezomib],EC50,C. elegans strain PE254 [1]; [5],888 nM
same,EC50,C. elegans strain PE254 [1]; [6],592 nM
same,effect on life stage viability (in words),C. elegans strain PE254 [3],potent larval-stage depletion
same,effect on life stage viability (in words),C. elegans strain PE254 [3]; listed as 5,affecting life-stage progression or number
C=CC(=O)N1C/C(=C\c2ccc([N+](=O)[O-])cc2)C(=O)/C(=C/c2ccc([N+](=O)[O-])cc2)C1 [b-AP15],activity on C. elegans viability in primary qHTS (in words),C. elegans strain PE254 [1]; GFP area,Inactive
O=C(/C=C\n1cnc(-c2cc(C(F)(F)F)cc(C(F)(F)F)c2)n1)NNc1cnccn1 [Selinexor],activity on C. elegans viability in primary qHTS (in words),C. elegans strain PE254 [1]; GFP area,low potency and efficacy
same,activity on C. elegans viability in follow-up (in words),C. elegans strain PE254 [2],moderately active
same,effect on life stage viability (in words),C. elegans strain PE254 [3],inactive
